Measured values reported in US6777425B2, “Isoquinoline compounds having antiinfective activity” (Genesoft Pharmaceuticals, Inc., priority 2001, dated 2004).

How the values were obtained:
[1] = test system: C. albicans ATCC 38247; test: Antifungal MIC, C. albicans; format: cell-based, Candida albicans; details: organism B = C. albicans ATCC 38247
Text: (§1) Compounds according to this invention were screened for their in vitro activities against selected species of bacteria and fungi. […]

[2] = test system: B. cereus ATCC 11778; test: NCCLS broth microdilution MIC, B. cereus; format: cell-based, Bacillus cereus; details: organism A = B. cereus ATCC 11778
Text: as §1

[3] = test system: S. epidermidis ATCC 12228; test: NCCLS broth microdilution MIC, S. epidermidis; format: cell-based, Staphylococcus epidermidis; details: organism G = S. epidermidis ATCC 12228
Text: as §1

[4] = test system: S. aureus ATCC 27660; test: NCCLS broth microdilution MIC, S. aureus (MRSA); format: cell-based, Staphylococcus aureus; details: organism F = S. aureus ATCC 27660 (MRSA)
Text: as §1

[5] = test system: S. pneumoniae ATCC 49619; test: NCCLS broth microdilution MIC, S. pneumoniae ATCC 49619; format: cell-based, Streptococcus pneumoniae; details: organism H = S. pneumoniae ATCC 49619
Text: as §1

[6] = test system: S. aureus ATCC 13709; test: NCCLS broth microdilution MIC, S. aureus (MSSA); format: cell-based, Staphylococcus aureus; details: organism E = S. aureus ATCC 13709 (MSSA)
Text: as §1

[7] = test system: S. pneumoniae ATCC 51422; test: NCCLS broth microdilution MIC, S. pneumoniae (PRSP); format: cell-based, Streptococcus pneumoniae; details: organism I = S. pneumoniae ATCC 51422 (PRSP)
Text: as §1

[8] = test system: E. faecium ATCC 51559; test: NCCLS broth microdilution MIC, E. faecium (VRE); format: cell-based, Enterococcus faecium; details: organism D = E. faecium ATCC 51559 (VRE)
Text: as §1

[9] = test system: E. faecalis ATCC 29212; test: NCCLS broth microdilution MIC, E. faecalis; format: cell-based; details: organism C = E. faecalis ATCC 29212
Text: as §1

| Structure (SMILES) | Minimum Inhibitory Concentration (MIC) [1] | Minimum Inhibitory Concentration (MIC) [2] | Minimum Inhibitory Concentration (MIC) [3] | Minimum Inhibitory Concentration (MIC) [4] | Minimum Inhibitory Concentration (MIC) [5] | Minimum Inhibitory Concentration (MIC) [6] | Minimum Inhibitory Concentration (MIC) [7] | Minimum Inhibitory Concentration (MIC) [8] | Minimum Inhibitory Concentration (MIC) [9] |
| --- | --- | --- | --- | --- | --- | --- | --- | --- | --- |
| Cn1cc(NC(=O)c2cc(NC(=O)c3cc(NC(=O)c4cc5ccccc5cn4)c[nH]3)cn2C)cc1C(=O)NCCN1CCOCC1 [Ib-50] | >32 µg/mL | +++ (+++ = MIC ≦ 4) | +++ (+++ = MIC ≦ 4) | +++ (+++ = MIC ≦ 4) | +++ (+++ = MIC ≦ 4) | +++ (+++ = MIC ≦ 4) | +++ (+++ = MIC ≦ 4) | +++ (+++ = MIC ≦ 4) | +++ (+++ = MIC ≦ 4) |
| Cn1cc(NC(=O)c2cc(NC(=O)c3cc(NC(=O)c4cc5ccccc5cn4)cs3)cn2C)cc1C(=O)NCCN1CCOCC1 [Ib-51] | ++ (++ = 4 < MIC < 12) | +++ (+++ = MIC ≦ 4) | ++ (++ = 4 < MIC < 12) | +++ (+++ = MIC ≦ 4) | +++ (+++ = MIC ≦ 4) | +++ (+++ = MIC ≦ 4) | + (+ = 12 ≦ MIC ≦ 32) | ++ (++ = 4 < MIC < 12) | +++ (+++ = MIC ≦ 4) |
| Cn1cc(NC(=O)c2cc3ccccc3cn2)cc1C(=O)Nc1cc(C(=O)Nc2cc(C(=O)NCCN3CCOCC3)ns2)n(C)c1 [Ib-52] | >32 µg/mL | +++ (+++ = MIC ≦ 4) | +++ (+++ = MIC ≦ 4) | +++ (+++ = MIC ≦ 4) | +++ (+++ = MIC ≦ 4) | +++ (+++ = MIC ≦ 4) | +++ (+++ = MIC ≦ 4) | +++ (+++ = MIC ≦ 4) | +++ (+++ = MIC ≦ 4) |
| Cn1cc(NC(=O)c2cc3ccccc3cn2)cc1C(=O)Nc1cc(C(=O)Nc2c[nH]c(C(=O)NCCN3CCSCC3)c2)n(C)c1 [Ib-54] | >32 µg/mL | +++ (+++ = MIC ≦ 4) | ++ (++ = 4 < MIC < 12) | +++ (+++ = MIC ≦ 4) | +++ (+++ = MIC ≦ 4) | +++ (+++ = MIC ≦ 4) | +++ (+++ = MIC ≦ 4) | +++ (+++ = MIC ≦ 4) | +++ (+++ = MIC ≦ 4) |
| Cn1cc(NC(=O)c2cc(NC(=O)c3cc(NC(=O)c4cc5ccccc5cn4)c[nH]3)cn2C)cc1C(=O)NCCN1CCC(F)(F)CC1 [Ib-78] | >32 µg/mL | +++ (+++ = MIC ≦ 4) | +++ (+++ = MIC ≦ 4) | +++ (+++ = MIC ≦ 4) | +++ (+++ = MIC ≦ 4) | +++ (+++ = MIC ≦ 4) | +++ (+++ = MIC ≦ 4) | +++ (+++ = MIC ≦ 4) | +++ (+++ = MIC ≦ 4) |
| COCCOCCOCCn1cc(NC(=O)c2cc(NC(=O)c3cc4ccccc4cn3)cn2C)cc1C(=O)Nc1cc(C(=O)NCCN2CCOCC2)n(C)c1 [Ib-83] | >32 µg/mL | +++ (+++ = MIC ≦ 4) | +++ (+++ = MIC ≦ 4) | +++ (+++ = MIC ≦ 4) | +++ (+++ = MIC ≦ 4) | +++ (+++ = MIC ≦ 4) | +++ (+++ = MIC ≦ 4) | +++ (+++ = MIC ≦ 4) | +++ (+++ = MIC ≦ 4) |
| Cn1cc(NC(=O)c2cc(NC(=O)c3cc(NC(=O)c4cc5ccccc5cn4)cn3C)c[nH]2)cc1C(=O)NCCN1CCCC1 [Ib-84] | + (+ = 12 ≦ MIC ≦ 32) | +++ (+++ = MIC ≦ 4) | +++ (+++ = MIC ≦ 4) | +++ (+++ = MIC ≦ 4) | +++ (+++ = MIC ≦ 4) | +++ (+++ = MIC ≦ 4) | +++ (+++ = MIC ≦ 4) | +++ (+++ = MIC ≦ 4) | +++ (+++ = MIC ≦ 4) |
| Cn1cc(NC(=O)c2cc(NC(=O)c3cc(NC(=O)c4cc5ccccc5cn4)cn3C)c[nH]2)cc1C(=O)NCCN1CCC(F)CC1 [Ib-85] | + (+ = 12 ≦ MIC ≦ 32) | +++ (+++ = MIC ≦ 4) | +++ (+++ = MIC ≦ 4) | +++ (+++ = MIC ≦ 4) | +++ (+++ = MIC ≦ 4) | +++ (+++ = MIC ≦ 4) | +++ (+++ = MIC ≦ 4) | +++ (+++ = MIC ≦ 4) | +++ (+++ = MIC ≦ 4) |
| Cn1cc(NC(=O)c2cc(NC(=O)c3cc(NC(=O)c4cc5ccccc5cn4)cn3C)c[nH]2)cc1C(=O)NCCN1CCCCC1 [Ib-86] | ++ (++ = 4 < MIC < 12) | +++ (+++ = MIC ≦ 4) | +++ (+++ = MIC ≦ 4) | +++ (+++ = MIC ≦ 4) | +++ (+++ = MIC ≦ 4) | +++ (+++ = MIC ≦ 4) | +++ (+++ = MIC ≦ 4) | +++ (+++ = MIC ≦ 4) | +++ (+++ = MIC ≦ 4) |
| Cn1cc(NC(=O)c2cc(NC(=O)c3cc(NC(=O)c4cc5ccccc5cn4)cn3C)c[nH]2)cc1C(=O)NCCN1CCSCC1 [Ib-87] | >32 µg/mL | +++ (+++ = MIC ≦ 4) | +++ (+++ = MIC ≦ 4) | +++ (+++ = MIC ≦ 4) | +++ (+++ = MIC ≦ 4) | +++ (+++ = MIC ≦ 4) | +++ (+++ = MIC ≦ 4) | +++ (+++ = MIC ≦ 4) | +++ (+++ = MIC ≦ 4) |
| Cn1cc(NC(=O)c2cc(NC(=O)c3cc(NC(=O)c4cc5ccccc5cn4)cn3C)c[nH]2)cc1C(=O)NCCN1CCC(F)(F)CC1 [Ib-88] | >32 µg/mL | +++ (+++ = MIC ≦ 4) | +++ (+++ = MIC ≦ 4) | +++ (+++ = MIC ≦ 4) | +++ (+++ = MIC ≦ 4) | +++ (+++ = MIC ≦ 4) | +++ (+++ = MIC ≦ 4) | +++ (+++ = MIC ≦ 4) | +++ (+++ = MIC ≦ 4) |
| C[C@@H]1CCC[C@H](C)N1CCNC(=O)c1cc(NC(=O)c2ccc(NC(=O)c3cc(NC(=O)c4cc5ccccc5cn4)cn3C)cc2)cn1C [Ic-6] | >32 µg/mL | +++ (+++ = MIC ≦ 4) | – | +++ (+++ = MIC ≦ 4) | +++ (+++ = MIC ≦ 4) | +++ (+++ = MIC ≦ 4) | +++ (+++ = MIC ≦ 4) | – | +++ (+++ = MIC ≦ 4) |
